Measurements published in PubChem BioAssay (NCI).
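Cells were grown in 96-well plates and exposed to each compound for 48 hours at five concentrations; endpoints were interpolated linearly between bracketing concentrations, or set to the highest concentration if not reached. TGI: total growth inhibition.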

What was measured:
Assay in all cases: NCI-60 cell line screen, 48 h
[1] = test system: EKVX NSCLC
[2] = test system: HCC-2998 colon
[3] = test system: HCT-116 colon
[4] = test system: HL-60(TB) leukemia
[5] = test system: HOP-62 NSCLC
[6] = test system: HS 578T breast
[7] = test system: MALME-3M melanoma
[8] = test system: OVCAR-4 ovarian
[9] = test system: PC-3 prostate
[10] = test system: RPMI-8226 leukemia
[11] = test system: SF-295 CNS
[12] = test system: SK-MEL-28 melanoma
[13] = test system: UACC-257 melanoma
[14] = test system: UACC-62 melanoma
[15] = test system: UO-31 renal

| SMILES | TGI [1] | TGI [2] | TGI [3] | TGI [4] | TGI [5] | TGI [6] | TGI [7] | TGI [8] | TGI [9] | TGI [10] | TGI [11] | TGI [12] | TGI [13] | TGI [14] | TGI [15] |
| --- | --- | --- | --- | --- | --- | --- | --- | --- | --- | --- | --- | --- | --- | --- | --- |
| N#Cc1ccc(C2NN=CC23C(=O)c2ccccc2OC3c2ccccc2)cc1 (stereo unspecified) | 84.8 µM | > 100 µM | 69 µM | > 100 µM | > 100 µM | > 100 µM | > 100 µM | > 100 µM | > 100 µM | 61.4 µM | > 100 µM | > 100 µM | > 100 µM | > 100 µM | 96.8 µM |
| NC(=O)C(=CNC(=S)Nc1cccc(C(F)(F)F)c1)C(N)=O | – | > 100 µM | > 100 µM | > 100 µM | > 100 µM | > 100 µM | – | > 100 µM | > 100 µM | > 100 µM | > 100 µM | > 100 µM | > 100 µM | > 100 µM | > 100 µM |
| CC(=O)Nc1ccc(Sc2nnc(NC(C)=O)s2)cc1 | > 100 µM | > 100 µM | > 100 µM | > 100 µM | > 100 µM | > 100 µM | – | > 100 µM | > 100 µM | > 100 µM | > 100 µM | > 100 µM | > 100 µM | – | > 100 µM |
| c1ccc([P+](CCCCCC[P+](c2ccccc2)(c2ccccc2)c2ccccc2)(c2ccccc2)c2ccccc2)cc1 | > 100 µM | > 100 µM | > 100 µM | 67 µM | > 100 µM | > 100 µM | > 100 µM | > 100 µM | > 100 µM | – | > 100 µM | > 100 µM | 8.64 µM | > 100 µM | > 100 µM |
| Cc1csc(NNC(=O)Nc2ccccc2)n1 | > 100 µM | > 100 µM | > 100 µM | > 100 µM | > 100 µM | > 100 µM | > 100 µM | > 100 µM | > 100 µM | > 100 µM | > 100 µM | > 100 µM | > 100 µM | > 100 µM | > 100 µM |
| O=C1O/C(=C\c2ccc(O)cc2)C(c2ccc(O)c(Cl)c2)=C1Cl | > 100 µM | 89.9 µM | – | 94.7 µM | > 100 µM | > 100 µM | 74.5 µM | > 100 µM | > 100 µM | > 100 µM | > 100 µM | > 100 µM | > 100 µM | > 100 µM | > 100 µM |
| O=c1c2c(F)c(F)c(F)c(F)c2sc2nccn12 | 50.2 µM | 31.9 µM | 27.7 µM | 4.14 µM | 42.3 µM | 76.2 µM | 35.4 µM | 35.8 µM | 35.9 µM | 42.4 µM | 36.3 µM | 53.5 µM | 45.5 µM | 31.8 µM | – |
| N#Cc1c(O)c2ccccc2[nH]c1=O | > 100 µM | > 100 µM | > 100 µM | > 100 µM | > 100 µM | – | > 100 µM | > 100 µM | > 100 µM | > 100 µM | > 100 µM | > 100 µM | > 100 µM | > 100 µM | > 100 µM |
| CCCCc1ccc(C#CC#Cc2ccc(CCCC)s2)s1 | > 100 µM | > 100 µM | > 100 µM | > 100 µM | > 100 µM | > 100 µM | – | > 100 µM | – | > 100 µM | > 100 µM | – | > 100 µM | > 100 µM | > 100 µM |
| Cn1c(=O)c(Cl)c(N=[N+]=[N-])c2ccccc21 | > 100 µM | > 100 µM | > 100 µM | – | > 100 µM | > 100 µM | > 100 µM | > 100 µM | > 100 µM | – | > 100 µM | > 100 µM | > 100 µM | > 100 µM | > 100 µM |
| COC1/C=C/C(C)C(C(C)C(OC)C(C)CCC(=O)C(C)C(CC(=O)O)OC)OC(=O)/C=C/C=C(\C)CC(OC)CC2=CC(=O)O[C@H](C2)C(C)C(OC)CC(OC)/C=C/C(C)C(OC)C1 (stereo partly specified) | > 4.35 µM | > 4.35 µM | – | 1.73 µM | > 4.35 µM | 0.387 µM | – | > 4.35 µM | 3.1 µM | > 4.35 µM | 2.19 µM | 1.25 µM | > 4.35 µM | 3.05 µM | 1.22 µM |
| CC(O)[C@@]1(c2ccccc2)CC2(CCN(C)CC2)O[C@H]1C (stereo partly specified) | > 100 µM | > 100 µM | – | 95 µM | > 100 µM | > 100 µM | > 100 µM | > 100 µM | > 100 µM | > 100 µM | > 100 µM | > 100 µM | > 100 µM | > 100 µM | > 100 µM |
| O=C1CCCc2ccc3c(c21)CC1(Cc2ccccc2C1)C3 | > 100 µM | > 100 µM | 55.7 µM | – | > 100 µM | > 100 µM | > 100 µM | 98.8 µM | > 100 µM | 48.1 µM | > 100 µM | – | 58 µM | > 100 µM | > 100 µM |
| C=CC1(C)OC2(CCN(C(=O)OCC)CC2)OC1C (stereo unspecified) | > 100 µM | > 100 µM | – | > 100 µM | > 100 µM | > 100 µM | > 100 µM | > 100 µM | > 100 µM | > 100 µM | > 100 µM | > 100 µM | > 100 µM | > 100 µM | > 100 µM |
